Data from the supplement of paper PMC10307832.

Key:
Experiment in all cases: relative viability (nuclei count vs DMSO), 5 days (fraction); higher = more cells survive
[1] = compound: C1=CC=C2C(=C1)N=C(S2)C(C#N)C3=NC(=NC=C3)NCCC4=CN=CC=C4 + COc1cccc2cc(-c3nc([C@H]4CC[C@H](C(=O)O)CC4)n4ncnc(N)c34)[nH]c12 [OSI-027] (partner 0.5 µM)
Outline: (§1)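 For relative viability, nuclei counts in treated wells were divided by those in vehicle wells. Lung cancer cell lines had been pin-tool dosed in 1536-well plates the day after seeding and cultured for 5 days, then fixed and stained in one step (final 0.05% Triton X-100, 1% formaldehyde, 1 ug/ml Hoechst) and imaged at 4×. Doses were one drug alone or a fixed anchor-drug dose plus five library-drug doses (not always all listed) in √10 steps, and values are duplicate-plate medians.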

[2] = compound: C1=CC=C2C(=C1)N=C(S2)C(C#N)C3=NC(=NC=C3)NCCC4=CN=CC=C4 + CC(=O)Nc1cccc(-n2c(=O)n(C3CC3)c(=O)c3c(Nc4ccc(I)cc4F)n(C)c(=O)c(C)c32)c1 [Trametinib] (partner 0.02 µM)
Outline: as §1

Vandetanib + Trametinib = compound: COc1cc2/c(=N/c3ccc(Br)cc3F)nc[nH]c2cc1OCC1CCN(C)CC1 [Vandetanib] + CC(=O)Nc1cccc(-n2c(=O)n(C3CC3)c(=O)c3c(Nc4ccc(I)cc4F)n(C)c(=O)c(C)c32)c1 [Trametinib] (partner 0.02 µM)
Outline: as §1

CUDC-101 + Vorinostat = compound: C#Cc1cccc(Nc2ncnc3cc(OC)c(OCCCCCCC(=O)NO)cc23)c1 [CUDC-101] + O=C(CCCCCCC(=O)Nc1ccccc1)NO [Vorinostat] (partner 1 µM)
Outline: as §1

Cell Line	relative viability ([1]; first compound 0.005 µM)	relative viability ([1]; first compound 0.01581 µM)	relative viability ([1]; first compound 0.05 µM)	relative viability ([1]; first compound 0.1581 µM)	relative viability ([1]; first compound 0.5 µM)	relative viability ([2]; first compound 0.005 µM)	relative viability ([2]; first compound 0.01581 µM)	relative viability ([2]; first compound 0.05 µM)	relative viability ([2]; first compound 0.1581 µM)	relative viability ([2]; first compound 0.5 µM)	relative viability (Vandetanib + Trametinib; first compound 0.02 µM)	relative viability (Vandetanib + Trametinib; first compound 0.06325 µM)	relative viability (Vandetanib + Trametinib; first compound 0.2 µM)	relative viability (Vandetanib + Trametinib; first compound 0.6325 µM)	relative viability (Vandetanib + Trametinib; first compound 2 µM)	relative viability (CUDC-101 + Vorinostat; first compound 0.01 µM)	relative viability (CUDC-101 + Vorinostat; first compound 0.03162 µM)	relative viability (CUDC-101 + Vorinostat; first compound 0.1 µM)	relative viability (CUDC-101 + Vorinostat; first compound 0.3162 µM)	relative viability (CUDC-101 + Vorinostat; first compound 1 µM)
201T	0.935	0.696	0.7	0.833	0.779	0.675	0.756	0.739	0.748	0.693	0.715	0.68	0.751	0.696	0.676	1.02	0.954	0.937	0.982	0.842
A-427	0.481	0.467	0.442	0.475	0.39	0.882	0.714	0.683	0.81	0.804	0.734	0.662	0.745	0.737	0.742	0.862	0.81	0.854	0.817	0.433
ABC-1	0.592	0.407	0.51	0.606	0.517											1.05	0.988	1.17	0.815	0.318
BEN	0.427	0.283	0.274	0.625	0.587	1.08	1.11	1.15	1.05	1.2	1.09	1.01	0.985	1	0.798	0.656	0.557	0.573	0.538	0.386
CAL-12T	0.811	0.536	0.525	0.534	0.427	0.278	0.327	0.395	0.34	0.384	0.342	0.3	0.316	0.242	0.305	0.761	0.803	0.919	0.828	0.487
COR-L23	0.369	0.839	0.716	0.985	0.511	0.582	0.547	0.597	0.717	0.608	0.619	0.517	0.695	0.71	0.641	0.35	0.581	0.394	0.22	0.0997
COR-L 105	0.576	0.556	0.71	0.768	0.547	0.379	0.423	0.412	0.474	0.498	0.42	0.405	0.427	0.383	0.416	0.921	0.663	0.831	0.611	0.371
ChaGo-K-1		0.491	0.616	0.587	0.452	0.683	0.949	0.913	0.957	0.715	0.878	0.87	0.253	0.929	0.866	0.756	0.727	0.79	0.698	0.578
EKVX	0.736	0.909	0.681	0.69	0.659	0.228	0.328	0.282	0.299	0.294	0.37	0.289	0.281	0.294	0.212	0.658	0.658	0.623	0.617	0.363
EMC-BAC-2	0.364	0.37	0.38	0.394	0.366	1.03	0.938	0.812	0.963	0.855	1.01	0.844	0.872	0.902	0.822	0.506	0.449	0.507	0.309	0.191
EPLC-272H	0.217	0.264	0.254	0.257	0.301	0.392	0.277	0.301	0.336	0.265	0.303	0.242	0.289	0.293	0.255	0.345	0.38	0.464	0.229	0.118
H3255	0.732	0.596	0.608	0.581	0.702	0.533	0.577	0.62	0.697	0.726	0.614	0.577	0.604	0.463	0.245	0.824	0.786		1.07	0.368
HARA	0.602	0.373	0.493	0.464	0.472	0.685	0.475	0.49	1.31	0.576	0.515	0.522	0.574	0.857	0.523	0.505	0.678	0.577	0.478	0.22
HCC-15	0.558	0.644	0.722	0.863	0.531	0.396	0.418	0.369	0.378	0.356	0.386	0.362	0.37	0.395	0.369	0.828	0.802	0.77	0.716	0.448
HCC-44	0.421		0.566	0.531	0.47	1.06	1.1	1.02	1.07	0.967	1.1	1.04	1.06	1.15	1.06	1.04	1.2	1.13	1.02	1.11
HCC-78	0.367	0.35	0.332	0.438	0.36	1.01	0.782	0.924	0.693	0.729	0.73	0.814	0.684	0.809	0.525	0.441	0.413	0.46	0.377	0.259
